In patent US20070111956A1, “Remedy for sarcoidosis and method of treating the same” (Japan Science and Technology Agency, priority 2003, published 2007):
Counter-ions that a name gives are not always drawn.

How the values were obtained:
[1] = tested on: mice immunized three times with P. acnes; assay: Antibiotic treatment in the mouse pulmonary granuloma (sarcoidosis) model: BAL cell counts and histology; assay type: in vivo; settings: for decrease of the total number of BAL leukocytes (improved by): percentage in comparison to the control (PBS) group set at 100; for number of CD4+ BAL cells decreased by: two weeks after the third immunization, antibiotics begun before immunization, FIG. 6b
Procedure: Female C57BL/6J mice of 5 to 7 weeks of age were obtained from CLEA Japan (Shizuoka, Japan) or Japan SLC, Inc. (Tokyo, Japan), and kept under specific pathogen-free (SPF) conditions in the animal facility of the Department of Molecular Preventive Medicine, Graduated School of Medicine, the University of Tokyo. All animal experiments were conducted in accordance with the guidelines of the University of Tokyo.
P. acnes-sensitized CD4^+ T cells were isolated from groins of normal mice and mice immunized three times. Immunization was conducted by subcutaneous injection of 400 μg of heat-killed P. acnes (ATCC11828, American Type Culture Collection, Manassas, Va.) and Freund's complete adjuvant (Difco, Detroit, Mich.) into the footpad at 2-week intervals. CD4^+ cells were isolated with the use of MACS system (Miltenyi Biotech, Bergisch Gladbach, Germany) according to manufacturer's instructions. The purity of CD4^+ cell populations was 94% or higher, as confirmed by immunostaining flow cytometry. The isolated CD4^+ cells (2×10^6 cells/PBS 200 μl) were injected into the tail vein of normal mice, and histological analysis of the lungs was conducted two weeks after the injection.
BAL cells were collected by five injections of 0.8 ml of sterile PBS containing 2% FCS (Sigma, St. Louis, Mo.) and 2 mM EDTA. The total number of BAL leukocytes was counted with a hemocytometer. Before the analysis with EPICS Elite instrument (Beckman Coulter, Miami, Fla.), BAL cells were preincubated with rat anti-mouse CD16/CD32 (clone; 2.4G2) mAb to block FcR-mediated binding, and then incubated for […] at 4° C. with FITC-conjugated anti-CD4 (H129.19) mAb and PE-conjugated anti-CD8a (53-6.7) mAb, both from BD Pharmingen.
Minocycline hydrochloride (MINO) (Wyeth Ledele, Tokyo, Japan) and clindamycin (CLDM) (Pharmacia, Tokyo, Japan) were used. On day one, 133 μg of MINO and 1.6 mg of CLDM were administered intratrancheally (i.t.). Subsequently, the same dose of each antibiotic was injected intraperitoneally (i.p.) everyday for one week before immunization, then intraperitoneal injection was conducted three times per week. During the experiment, mice were given water containing each antibiotic at the same dose as mentioned above. Similarly, ampicillin (ABPC), cefazolin sodium (CEZ), gentamicin sulfate (GM), fosfomycin (FOM), clarithromycin (CAM) were used and single dose of these antibiotics was set by calculating the maximum amount for regular use by adults based on their body weight.

[2] = tested on: indigenous P. acnes in the mouse lung; assay: PCR detection of indigenous P. acnes in the mouse lung after antibiotics; assay type: in vivo, Propionibacterium acnes; settings: PBS as a control; FIG. 8
Procedure: Samples of 1 μg of total RNA were isolated from the lungs, and regional lymph nodes samples of the lung, the liver, the skin and the pancreas of SPF mice using Trizol (Invitrogen, Groningen, the Netherlands) according to the manufacturer's instructions. Then, RNA samples were reverse transcribed into cDNA, and amplified (J. Exp. Med. 193, 35-49, 2001; J. Clin. Invest. 102, 1933-1941, 1998). PCR products of 16s ribosomal RNA of P. acnes were electrophoresed on 2.5% agarose gel. The bands visualized by ethidium bromide staining were expected size for each mRNA product. Oligonucleotide primers for P. acnes were designed as described previously (J. Clin. Microbiol. 40, 198-204, 2002): forward, 5′-[…]-3′ (SEQ ID NO: 1); reverse, 5′-TTCCGACGCGATCAACCA-3′ (SEQ ID NO: 2). Contamination of P. acnes during the experiment was checked by buffer control. As primers for GAPDH as an internal standard, previously described ones were used (J. Exp. Med. 193, 35-49, 2001). PCR conditions: heated at 95° C. for 5 min, followed by 40 cycles of 95° C. for 30 sec, 58° C. for 60 sec, 72° C. for 60 sec, and finally heated at 72° C. for 10 min.
Minocycline hydrochloride (MINO) (Wyeth Ledele, Tokyo, Japan) and clindamycin (CLDM) (Pharmacia, Tokyo, Japan) were used. On day one, 133 μg of MINO and 1.6 mg of CLDM were administered intratrancheally (i.t.). […]

[3] = Examination for nonspecific immunosuppression (ear swelling, spleen index); assay type: in vivo, mouse; settings: in comparison to PBS control; FIG. 9

## gentamicin sulfate [GM]
[1]; FIG. 7, in comparison to the control (PBS) group
  effect on BAL cells (FIG. 7), in words: no effect
[2]
  indigenous P. acnes in the mouse lung by PCR: did not decrease so much

## CC1(C)S[C@@H]2[C@H](NC(=O)[C@H](N)c3ccccc3)C(=O)N2[C@H]1C(=O)O [ABPC, ampicillin]
[1]; FIG. 7
  decrease of the total number of BAL leukocytes (improved by): 46.1%

## CN(C)c1ccc(O)c2c1C[C@H]1C[C@H]3[C@H](N(C)C)C(O)=C(C(N)=O)C(=O)[C@@]3(O)C(O)=C1C2=O [MINO, minocycline hydrochloride]
[1]; FIG. 7
  decrease of the total number of BAL leukocytes (improved by): 53.5%
[1]
  number of CD4+ BAL cells decreased by: 53.5%
[3]
  size of ear swelling: no marked differences
  spleen index: no marked differences

## CC[C@H]1OC(=O)[C@H](C)[C@@H](O[C@H]2C[C@@](C)(OC)[C@@H](O)[C@H](C)O2)[C@H](C)[C@@H](O[C@@H]2O[C@H](C)C[C@H](N(C)C)[C@H]2O)[C@](C)(OC)C[C@@H](C)C(=O)[C@H](C)[C@@H](O)[C@]1(C)O [CAM, clarithromycin]
[1]; FIG. 7
  decrease of the total number of BAL leukocytes (improved by): 48.3%

## CCC[C@@H]1C[C@@H](C(=O)N[C@@H]([C@H]2O[C@H](SC)[C@H](O)[C@@H](O)[C@H]2O)[C@H](C)Cl)N(C)C1 [CLDM, clindamycin]
[1]; FIG. 7
  decrease of the total number of BAL leukocytes (improved by): 42.1%
[1]; FIG. 7, short: antibiotics initiated one month after treatment of the model (at the last immunization), versus PBS set at 100
  decrease of the total number of BAL leukocytes (improved by), group administered for a short period: 74.3%
[1]
  number of CD4+ BAL cells decreased by: 42.1%
[3]
  size of ear swelling: no marked differences
  spleen index: no marked differences
